Laboratory results from patent publication US10851132B2, “Protein based adhesive composition and method” (SEWON BIOTECHNOLOGY INC., priority 2015, dated 2020).
Ends that are not written are not given here.

Legend:
[1] = Affinity chromatography with heparin-agarose beads; assay type: binding; settings: Examples 11 and 12; FIG. 11, FIG. 12
Experimental: (§1) For chromatography, heparin-agarose beads (Biovision) and GlcNAc-agarose beads (Sigma) were used. 10 ng of FITC labelled peptide (F-peptide) was mixed in PBS-T buffer with heparin-agarose beads and GlcNAc-agarose beads, each precoated with BSA, and incubated at RT for 10 min. Then the mixture was washed 3 times with PBS-T buffer and resuspended in PBS for fluorescent measurement. For competitive binding experiments, the present peptide not labelled with FITC (Cold) was added to the mixture at various ratios of 1:1, 1:10 (10 times) and 1:100 (100 times) and allowed for incubation followed by fluorescent measurement. As a negative control, only FITC dyes were used to react with the beads. Further fluorescent signals from a sample containing just beads suspended in PBS were used as a blank.
(§2) The peptides as listed and described in Table 2 were synthesized as described in Example 1 and tested for its adhesiveness to heparin and N-Acetylglucosamine (GAG) according to the methods described in Example 5.

[2] = Affinity chromatography with GlcNAc-agarose beads; assay type: binding; settings: Examples 11 and 12; FIG. 11, FIG. 12
Experimental: as §1, §2

[3] = test system: MC3T3-E1; assay: Comparative cell attachment experiment with soluble RGDs (CCK-8); assay type: cell-based, Mouse; settings: RGDs peptides used alone, 0-1000 μM; FIG. 4C
Experimental: The present peptide A7-1 (10 μM) or A7-1 together with soluble RGDs peptide (0, 10, 100 and 1000 μM) for competition assay were added to anchorage dependent cells MC3T3-E1 in a test tube and incubated for 10 min. Then the cells were transferred to a culture plate and incubated for 10 min in a thermostatic incubator to allow the cells to attach. After 10 min, the medium was removed and the cells were washed 2 times with PBS to remove any unattached cells and a fresh medium without the peptide and CCK-8 (Dojindo) were added to the cells and incubated for 1 hr in a thermostatic incubator. Then the absorbance was measured at 450 nm. The medium mixed with CCK-8 only was used as a blank.

[4] = test system: osteoblast MC3TC-E1; assay: Safety in osteoblasts: proliferation, viability, differentiation; assay type: cell-based, Mouse; settings: 0.1, 1, 10 and 100 μM
Experimental: The safety of the present peptides was determined using osteoblast MC3TC-E1. Osteoblasts were treated with A7-1 peptide as prepared in Example 1 at the concentration of 0.1 μM, 1 μM, 10 μM and 100 μM. Then the effect of the present peptide on the proliferation (FIG. 8A), viability (FIG. 8B) and differentiation (FIG. 8C) on the cells was examined. For testing the effect on the […], MC3T3-E1 and C2C12 cell lines were treated with BMP (rhBMP2, 10 ng/ml for 3 days) and differentiation medium for bone formation for 6 days to induce differentiation. The results were examined by cell staining. It is observed that the present peptide has no effect on the proliferation rate, viability rate or whether or not the cells are differentiated.

In the case of KQLVVKFRALPC [SEQ ID NO: 21], the adhesiveness to heparin [1] is reported as “working” and the “adhesiveness to N-Acetylglucosamine (GAG)” value [2] is reported as “working”.
With “RGDs: soluble RGDs peptides used as a competitor; binds to adhesive molecule integrins (RGDS)” the “adhesiveness of the cells” value [3] was “decreased in a concentration dependent manner”.
For RQLVVKFRALPC [A7-1], the “effect on proliferation rate” value ([4]; FIG. 8A) was “no effect”, the “effect on viability rate” value ([4]; FIG. 8B) was “no effect” and the “effect on whether or not the cells are differentiated” value ([4]; FIG. 8C) was “no effect”.
